{"source": "paper PMC8836147", "about": "“Design, Synthesis and Antifungal/Nematicidal Activity of Novel 1,2,4-Oxadiazole Derivatives Containing Amide Fragments” (International Journal of Molecular Sciences, 2022)", "key": {"M. incognita": {"tested_on": "M. incognita", "test": "microbe, parasite or virus in culture", "conditions": "Meloidogyne incognita, 48 h, read-out: Corrected Mortality Rate ± SD (%) M. incognita", "source_text": "(§1) M. incognita (parasitic on tomato plants), A. besseyi (potato dextrose agar–Botrytis cinerea breeding), B. xylophilus (potato dextrose agar–Botrytis cinerea breeding), and C. elegans (nematode growth medium–inactivated Escherichia coli OP50 cultivation) were provided by the Fine Chemical Research and Development Center of Guizhou University (Guizhou, China). The methodology used for the nematocidal bioassays of these target compounds was modified in the light of the conventional methods reported in the previously published literature. The nematicidal activity of the target compounds against four nematodes was determined using 48-well biochemical culture dishes. All of the compounds were dissolved with 100 μL DMF and were diluted with 1% Tween-80 to obtain 200 and 50 μg/mL concentrations for the bioassays. Fosthiazate and tioxazafen were used as positive controls at the same concentrations, and a negative control group was prepared without compounds using the same methodology. An amount of 10 µL of nematode suspension (about 50 nematodes) and 300 µL of the trial solution were added to corresponding hole, and each treatment was set to three repetitions. All of the 48-well plates were placed in a biochemical incubator at 27 °C for dark light culture. […] Corrected mortality (%) = [(mortality of treatment % − mortality of negative control %)/(1 − mortality of negative control %)] × 100%(3)"}, "C. elegans": {"tested_on": "C. elegans", "test": "microbe, parasite or virus in culture", "conditions": "Caenorhabditis elegans, 48 h, read-out: Corrected Mortality Rate ± SD (%) C. elegans", "source_text": "as §1"}, "A. besseyi": {"tested_on": "A. besseyi", "test": "microbe, parasite or virus in culture", "conditions": "Aphelenchoides besseyi, 48 h, read-out: Corrected Mortality Rate ± SD (%) A. besseyi", "source_text": "as §1"}, "B. xylophilus": {"tested_on": "B. xylophilus", "test": "microbe, parasite or virus in culture", "conditions": "Bursaphelenchus xylophilus, 48 h, read-out: Corrected Mortality Rate ± SD (%) B. xylophilus", "source_text": "as §1"}, "S. sclerotiorum [1]": {"tested_on": "S. sclerotiorum", "test": "In vivo protective activity assay on infected cole leaves", "design": "species or system Sclerotinia sclerotiorum", "conditions": "sprayed 24 h before inoculation, 72 h", "source_text": "(§2) Susceptible cole leaves collected from Guizhou Academy of Agricultural Sciences were used to determine the in vivo efficacy of F15 according to previous literature. […] Vaccination time was used to distinguish between the protective activity assays and curative activity assays. A 5 mm mycelia dish was placed at the widest center of the cole leaf, and it was ensured that it was not placed on the main vein of the leaf. For the protective activity assay, test compounds with different concentrations were sprayed on the leaves until the liquid reached the surface. Inoculation was conducted after 24 h. For the curative activity assay, which took place 24 h after inoculation, compounds of different concentrations were sprayed on the surfaces of the leaves until the liquid flowed. Fluopyram and sterile distilled water were used as a positive control and negative control, respectively. All of the inoculated leaves were placed inside of a 25 °C light incubator with 85% relative humidity and a 16 h photoperiod for disease development. The average diameters of the lesions were measured using the cross method after 72 h. The disease control efficacy was obtained through the following formula:Control efficacy (%) = (1 − DT/DCK) × 100%(4) where DCK represents the lesion diameter of the sterile distilled water control, and DT represents the lesion diameters of the treatment samples. Each test was carried out five times, and the experiment was performed three times."}, "S. sclerotiorum [2]": {"tested_on": "S. sclerotiorum", "test": "In vivo curative activity assay on infected cole leaves", "design": "species or system Sclerotinia sclerotiorum", "conditions": "sprayed 24 h after inoculation, 72 h", "source_text": "as §2"}, "S. sclerotiorum [3]": {"tested_on": "S. sclerotiorum", "test": "In vitro mycelium growth inhibition test", "assay_type": "cell-based", "conditions": "Sclerotinia sclerotiorum, mycelial growth, mean ± SD of three replicates", "protocol": "(§3) B. cinerea and S. scleotiorum were kindly provided by the Department of Pesticides, College of Plant Protection, Nanjing Agricultural University (Nanjing, China). All compounds were evaluated for mycelium growth inhibition tests against the two plant pathogenic fungi mentioned in previous reports. These two fungi were inoculated on potato dextrose agar (PDA) plates and were grown in biochemical incubators at 25 ± 1 °C for 2–4 days. The new mycelium was used to determine the antifungal activity. The target compounds were dissolved in 100 µL DMF, and they were then added into the PDA media to make the concentration 50 µg/mL. Mycelia dishes of about 5 mm in diameter were cut from the culture medium. Mycelium were picked up with a sterile inoculation needle, and the sample was inoculated in the middle of a PDA plate in a sterile environment. Afterwards, a preliminary screening of fungal activity was performed. […] Each test was carried out three times. The radial growth of the fungal colonies was gauged and recorded when the diameters of the blank control mycelia reached 5.0–5.5 cm. […] The final data were analyzed using SPSS v.25.0 (IBM, New York, NY, USA). The following formula was used to calculate the fungi inhibition rate. Inhibition rate (%) = [(Mycelium diameter of negative control − Mycelium diameter of treatment)/(Mycelium diameter of negative control − 0.5)] × 100%(1)"}, "B. cinerea": {"tested_on": "B. cinerea", "test": "In vitro mycelium growth inhibition test", "assay_type": "cell-based", "conditions": "Botrytis cinerea; 50 μg/mL; mycelial growth; mean ± SD of three replicates; read-out: Inhibition Rate (%) B. cinerea", "protocol": "as §3"}, "MTT cytotoxicity assay": {"test": "MTT cytotoxicity assay", "assay_type": "cell-based", "conditions": "human, L-02 normal liver cells, L-02 cells", "protocol": "The human liver L-02 cells were obtained from the biology laboratory in Key Laboratory of Chemistry for Natural Products of Guizhou Province and Chinese Academy of Sciences (Guiyang, China). The cells were grown in Dulbecco’s Modified Eagle’s Medium (supplemented with 10% (v/v) FBS, 100 U/mL penicillin, and 100 μg/mL streptomycin) at 37 °C in a CO2 incubator (5% CO2 and 95% air, 95% humidity). The effect of some compounds on cell viability was determined with the MTT assay according to the previously published literature. A total of 5000 cells were inoculated in a 96-well plate and three wells of each concentration of test compound were used. A total of 24 h after inoculation, the cells had grown to ~60% confluency, and different concentrations of compounds were added, and then the cells were cultured for 48 h. DMSO was used as the control. A total of 20 μL of MTT solution was added to each well and incubated at 37 °C for 4 h. Formazan crystals were dissolved in 150 μL of DMSO and quantified using a microplate reader (Thermo Scientific, Vario Skan Flash, Shanghai Bio-Gene Technology Co., LTD, Shanghai, China) at 490 nm. The cytotoxicity was calculated according to following formula:Cytotoxicity (%) = [(OCK − OT)/OCK] × 100%(2) where OCK represents the optical density (OD) value of the blank control group, and OT represents the OD value of experimental group."}}}
{"smiles": "O=C(NCCc1ncc(C(F)(F)F)cc1Cl)c1ccccc1C(F)(F)F", "note": "[Fluopyram, fluopyram, reference compound]", "values": [{"measurement": "mortality at 50 µg/mL", "setting": "M. incognita", "value": 100, "unit": "%"}, {"measurement": "mortality at 200 µg/mL", "setting": "M. incognita", "value": 100, "unit": "%"}, {"measurement": "mortality at 50 µg/mL", "setting": "C. elegans", "value": 100, "unit": "%"}, {"measurement": "mortality at 200 µg/mL", "setting": "C. elegans", "value": 100, "unit": "%"}, {"measurement": "mortality at 50 µg/mL", "setting": "A. besseyi", "value": 100, "unit": "%"}, {"measurement": "mortality at 200 µg/mL", "setting": "A. besseyi", "value": 100, "unit": "%"}, {"measurement": "mortality at 50 µg/mL", "setting": "B. xylophilus", "value": 100, "unit": "%"}, {"measurement": "mortality at 200 µg/mL", "setting": "B. xylophilus", "value": 100, "unit": "%"}, {"measurement": "Protective Effect Control Efficacy (%)", "setting": "S. sclerotiorum [1]; 25 μg/mL", "value": 66.8, "unit": "%"}, {"measurement": "Protective Effect Lesion Length", "setting": "S. sclerotiorum [1]; 25 μg/mL", "value": "7.9 ± 0.1", "unit": "mm"}, {"measurement": "Protective Effect Control Efficacy (%)", "setting": "S. sclerotiorum [1]; 50 μg/mL", "value": 69.3, "unit": "%"}, {"measurement": "Protective Effect Lesion Length", "setting": "S. sclerotiorum [1]; 50 μg/mL", "value": "7.3 ± 0.2", "unit": "mm"}, {"measurement": "Protective Effect Control Efficacy (%)", "setting": "S. sclerotiorum [1]; 100 μg/mL", "value": 75.6, "unit": "%"}, {"measurement": "Protective Effect Lesion Length", "setting": "S. sclerotiorum [1]; 100 μg/mL", "value": "5.8± 0.1", "unit": "mm"}, {"measurement": "Curative Effect Control Efficacy (%)", "setting": "S. sclerotiorum [2]; 25 μg/mL", "value": 65.0, "unit": "%"}, {"measurement": "Curative Effect Lesion Length", "setting": "S. sclerotiorum [2]; 25 μg/mL", "value": "7.7 ± 0.6", "unit": "mm"}, {"measurement": "Curative Effect Control Efficacy (%)", "setting": "S. sclerotiorum [2]; 50 μg/mL", "value": 71.4, "unit": "%"}, {"measurement": "Curative Effect Lesion Length", "setting": "S. sclerotiorum [2]; 50 μg/mL", "value": "6.3 ± 0.2", "unit": "mm"}, {"measurement": "Curative Effect Control Efficacy (%)", "setting": "S. sclerotiorum [2]; 100 μg/mL", "value": 74.1, "unit": "%"}, {"measurement": "Curative Effect Lesion Length", "setting": "S. sclerotiorum [2]; 100 μg/mL", "value": "5.7 ± 0.6", "unit": "mm"}, {"measurement": "inhibition at 50 µg/mL", "setting": "S. sclerotiorum [3]; 50 μg/mL, read-out: Inhibition Rate (%) S. sclerotiorum", "value": "93.7 ± 1.7", "unit": "%"}, {"measurement": "EC50", "setting": "S. sclerotiorum [3]; read-out: EC50 against S. sclerotiorum", "value": "1.2 ± 1.6", "unit": "µg/mL"}, {"measurement": "inhibition at 50 µg/mL", "setting": "B. cinerea", "value": "87.3 ± 0.6", "unit": "%"}, {"measurement": "cytotoxicity at 48 h, 50 μg/mL", "setting": "MTT cytotoxicity assay; 50 μg/mL", "value": "3.8 ± 2.5", "unit": "%"}, {"measurement": "cytotoxicity at 48 h, 100 μg/mL", "setting": "MTT cytotoxicity assay; 100 μg/mL", "value": "40.1 ± 1.2", "unit": "%"}, {"measurement": "cytotoxicity at 48 h, 200 μg/mL", "setting": "MTT cytotoxicity assay; 200 μg/mL", "value": "55.1 ± 0.4", "unit": "%"}]}
